According to patent publication EP4644375A1, “SUBSTITUTED HYDROQUINOLINES FOR THE TREATMENT OF GLIOBLASTOMA MULTIFORME” (Molius Saglik Teknolojileri Anonim Sirketi, priority 2024, dated 2025):

What was measured:
[1] = tested on: U138-MG human glioma cell; test: Cell proliferation analysis (MTT); format: cell-based; conditions: 10 µM, two days, MTT; for activity at 10 µM / inhibition at 10 µM: Homo sapiens, 48 h
[2] = tested on: U87-MG human glioma cell; test: Cell proliferation analysis (MTT); format: cell-based; conditions: for activity at 10 µM / inhibition at 10 µM: Homo sapiens, U-87 MG, 48 h

Molecule	activity at 10 µM [1]	inhibition at 10 µM [1]	activity at 10 µM ([2]; 10 µM, two days, MTT)	inhibition at 10 µM ([2]; 10 µM, two days, MTT)	top 5 target compounds whose treatment resulted in the lowest proliferation ([2]; ranking)	Cell Proliferation (%) [1]	Cell Proliferation (%) ([2]; 10 µM, two days, MTT)	Inhibition (%) [1]	Inhibition (%) ([2]; 10 µM, two days, MTT)
O=C(COc1ccc2c(c1)CCC(=O)N2)Nc1ccc([N+](=O)[O-])cn1 [TR-G122, N-(5-nitropyridin-2-yl)-2-((2-oxo-1,2,3,4-tetrahydroquinolin-6-yl)oxy)acetamide]	90%	11%	82%	18%	–	–	–	–	–
O=C1CCc2cc(OCc3cc(-c4ccc(F)cc4)no3)ccc2N1 [TR-G142, 6-((3-(4-fluorophenyl)isoxazol-5-yl)methoxy)-3,4-dihydroquinolin-2(1H)-one]	70%	30%	55%	46%	–	–	–	–	–
O=C(COc1ccc2c(c1)CCC(=O)N2)N/N=C1\C(=O)Nc2ccc(F)cc21 [TR-G050, (Z)-N'-(5-fluoro-2-oxoindolin-3-ylidene)-2-((2-oxo-1,2,3,4-tetrahydroquinolin-6-yl)oxy)acetohydrazide]	54%	46%	69%	31%	–	–	–	–	–
O=C1CCc2cc(OCc3cn(-c4cccc5[nH]ncc45)nn3)ccc2N1 [TR-G078, 6-((1-(1H-indazol-4-yl)-1H-1,2,3-triazol-4-yl)methoxy)-3,4-dihydroquinolin-2(1H)-one]	57%	43%	44%	56%	top 5	–	–	–	–
O=C1CCc2cc(OCc3cn(CCOCc4ccccc4)nn3)ccc2N1 [TR-G080, 6-((1-(2-(benzyloxy)ethyl)-1H-1,2,3-triazol-4-yl)methoxy)-3,4-dihydroquinolin-2(1H)-one]	71%	29%	79%	21%	–	–	–	–	–
CC(C)N(C(=O)Oc1ccc2c(c1)CCC(=O)N2)C(C)C [TR-G129, 2-oxo-1,2,3,4-tetrahydroquinolin-6-yl diisopropylcarbamate]	74%	26%	81%	19%	–	–	–	–	–
O=C1CCc2cc(OC(=O)c3ccc(CCl)cc3)ccc2N1 [TR-G065, 2-oxo-1,2,3,4-tetrahydroquinolin-6-yl 4-(chloromethyl)benzoate]	90%	10%	73%	27%	–	–	–	–	–
O=C1CCc2cc(OCC3CC3)ccc2N1 [TR-G010, 6-(cyclopropylmethoxy)-3,4-dihydroquinolin-2(1H)-one]	74%	26%	74%	26%	–	–	–	–	–
NC(=O)COCCOc1ccc2c(c1)CCC(=O)N2 [TR-G126, 2-(2-((2-oxo-1,2,3,4-tetrahydroquinolin-6-yl)oxy)ethoxy)acetamide]	97%	3%	70%	30%	–	–	–	–	–
C=CC(=O)Oc1ccc2c(c1)CCC(=O)N2 [TR-G039, 2-oxo-1,2,3,4-tetrahydroquinolin-6-yl acrylate]	75%	25%	59%	41%	–	–	–	–	–
O=C1CCc2cc(OCc3cn(CCCN4C(=O)c5ccccc5C4=O)nn3)ccc2N1 [TR-G117, 2-(3-(4-(((2-oxo-1,2,3,4-tetrahydroquinolin-6-yl)oxy)methyl)-1H-1,2,3-triazol-1-yl)propyl)isoindoline-1,3-dione]	106%	-6%	96%	4%	–	–	–	–	–
CCCn1cc(COc2ccc3c(c2)CCC(=O)N3)nn1 [TR-G082, 6-((1-propyl-1H-1,2,3-triazol-4-yl)methoxy)-3,4-dihydroquinolin-2(1H)-one]	89%	11%	74%	26%	–	–	–	–	–
O=C1CCc2cc(OC(=O)N3CCCC3)ccc2N1 [TR-G061, 2-oxo-1,2,3,4-tetrahydroquinolin-6-yl pyrrolidine-1-carboxylate]	92%	8%	84%	16%	–	–	–	–	–
CCOC(=O)CCn1cc(COc2ccc3c(c2)CCC(=O)N3)nn1 [TR-G079, ethyl 3-(4-(((2-oxo-1,2,3,4-tetrahydroquinolin-6-yl)oxy)methyl)-1H-1,2,3-triazol-1-yl)propanoate]	112%	-12%	94%	6%	–	–	–	–	–
CCCc1ccc(/C=N/NC(=O)COc2ccc3c(c2)CCC(=O)N3)cc1 [TR-G028, (E)-2-((2-oxo-1,2,3,4-tetrahydroquinolin-6-yl)oxy)-N'-(4-propylbenzylidene)acetohydrazide]	106%	-6%	64%	36%	–	–	–	–	–
O=C1CCc2cc(OC(=O)Nc3ccccc3Br)ccc2N1 [TR-G136, 2-oxo-1,2,3,4-tetrahydroquinolin-6-yl (2-bromophenyl)carbamate]	–	40%	–	11%	–	60%	89%	–	–

Molecule	activity at 10 µM [1]	inhibition at 10 µM [1]	activity at 10 µM ([2]; 10 µM, two days, MTT)	inhibition at 10 µM ([2]; 10 µM, two days, MTT)	top 5 target compounds whose treatment resulted in the lowest proliferation ([2]; ranking)	Cell Proliferation (%) [1]	Cell Proliferation (%) ([2]; 10 µM, two days, MTT)	Inhibition (%) [1]	Inhibition (%) ([2]; 10 µM, two days, MTT)
C=CCOc1ccc2c(c1)CCC(=O)N2CC=C [TR-G014A, 1-allyl-6-(allyloxy)-3,4-dihydroquinolin-2(1H)-one]	68%	32%	82%	19%	–	–	–	–	–
O=C1CCc2cc(OS(=O)(=O)c3ccc(Br)cc3)ccc2N1 [TR-G048, 2-oxo-1,2,3,4-tetrahydroquinolin-6-yl 4-bromobenzenesulfonate]	61%	39%	69%	31%	–	–	–	–	–
O=C(COc1ccc2c(c1)CCC(=O)N2)N/N=C/c1ccc(-c2ccc(Cl)cc2)cc1 [TR-G146, (E)-N'-((4'-chloro-[1,1'-biphenyl)-4-yl)methylene)-2-((2-oxo-1,2,3,4-tetrahydroquinolin-6-yl)oxy)acetohydrazide]	–	21%	–	37%	–	–	–	–	–
O=C(COc1ccc2c(c1)CCC(=O)N2)Nc1ccc(Br)cc1 [TR-G123]	109%	-9%	92%	8%	–	–	–	–	–
O=C1CCc2cc(OC(=O)c3cccc4ccccc34)ccc2N1 [TR-G011, 2-oxo-1,2,3,4-tetrahydroquinolin-6-yl 1-naphthoate]	60%	40%	76%	24%	–	–	–	–	–
O=C1CCc2cc(OCC3CC(c4ccc(Cl)cc4)=NO3)ccc2N1 (centres unmarked) [TR-G070, 6-((3-(4-chlorophenyl)-4,5-dihydroisoxazol-5-yl)methoxy)-3,4-dihydroquinolin-2(1H)-one]	79%	21%	68%	33%	–	–	–	–	–
CCOC(=O)Cn1cc(COc2ccc3c(c2)CCC(=O)N3)nn1 [TR-G033, Ethyl 2-(4-(((2-oxo-1,2,3,4-tetrahydroquinolin-6-yl)oxy)methyl)-1H-1,2,3-triazol-1-yl)acetate]	71%	29%	82%	19%	–	–	–	–	–
2-oxo-1,2,3,4-tetrahydroquinolin-6-yl dimethylcarbamate [TR-G005]	–	–	–	–	–	77%	77%	23%	23%
CCCCCCn1cc(COc2ccc3c(c2)CCC(=O)N3)nn1 [TR-G125, 6-((1-hexyl-1H-1,2,3-triazol-4-yl)methoxy)-3,4-dihydroquinolin-2(1H)-one]	82%	18%	64%	36%	–	–	–	–	–
Cc1[nH]c2ccccc2c1/C=N/NC(=O)COc1ccc2c(c1)CCC(=O)N2 [TR-G027, (E)-N'-((2-methyl-1H-indol-3-yl)methylene)-2-((2-oxo-1,2,3,4-tetrahydroquinolin-6-yl)oxy)acetohydrazide]	54%	46%	66%	34%	–	–	–	–	–
O=C1CCc2cc(OCCCBr)ccc2N1 [TR-G074, 6-(3-bromopropoxy)-3,4-dihydroquinolin-2(1H)-one]	–	19%	–	15%	–	81%	85%	–	–
O=C(COc1ccc2c(c1)CCC(=O)N2)N/N=C1\C(=O)Nc2ccc([N+](=O)[O-])cc21 [TR-G056, (Z)-N'-(5-nitro-2-oxoindolin-3-ylidene)-2-((2-oxo-1,2,3,4-tetrahydroquinolin-6-yl)oxy)acetohydrazide]	83%	17%	99%	1%	–	–	–	–	–
CC(C)(C)c1ccc(COc2ccc3c(c2)CCC(=O)N3)cc1 [TR-G030, 6-((4-(tert-butyl)benzyl)oxy)-3,4-dihydroquinolin-2(1H)-one]	63%	38%	53%	47%	–	–	–	–	–
O=C1CCc2cc(OCCCCOC(=O)c3ccccc3)ccc2N1 [TR-G013, 4-((2-oxo-1,2,3,4-tetrahydroquinolin-6-yl)oxy)butyl benzoate]	78%	22%	71%	29%	–	–	–	–	–
O=C(COc1ccc2c(c1)CCC(=O)N2)N/N=C/c1cccc(Oc2ccc(Cl)cc2)c1 [TR-G138, (E)-N'-(3-(4-chlorophenoxy)benzylidene)-2-((2-oxo-1,2,3,4-tetrahydroquinolin-6-yl)oxy)acetohydrazide]	–	35%	–	50%	–	–	–	–	–
CCOC(=O)CN1C(=O)CCc2cc(OCCCCc3nnnn3C3CCCCC3)ccc21 [TR-G102, ethyl 2-(6-(4-(1-cyclohexyl-1H-tetrazol-5-yl)butoxy)-2-oxo-3,4-dihydroquinolin-1(2H)-yl)acetate]	49%	51%	66%	35%	–	–	–	–	–
